Test [1] has as its target T1, system Xc^− (Homo sapiens, UniProt Q9UPY5).
T1 sequence (Q9UPY5 1-501): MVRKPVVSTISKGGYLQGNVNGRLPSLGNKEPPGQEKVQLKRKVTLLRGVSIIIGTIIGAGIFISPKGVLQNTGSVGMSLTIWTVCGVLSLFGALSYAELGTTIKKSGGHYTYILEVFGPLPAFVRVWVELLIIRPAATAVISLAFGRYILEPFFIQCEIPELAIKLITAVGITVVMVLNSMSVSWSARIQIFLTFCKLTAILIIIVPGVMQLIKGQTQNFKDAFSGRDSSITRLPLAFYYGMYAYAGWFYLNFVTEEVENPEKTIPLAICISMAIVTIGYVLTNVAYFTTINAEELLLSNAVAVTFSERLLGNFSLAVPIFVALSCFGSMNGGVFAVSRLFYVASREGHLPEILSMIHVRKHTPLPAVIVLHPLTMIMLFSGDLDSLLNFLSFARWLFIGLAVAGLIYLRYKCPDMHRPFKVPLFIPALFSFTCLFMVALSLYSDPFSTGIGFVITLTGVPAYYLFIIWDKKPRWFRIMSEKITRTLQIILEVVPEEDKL
T1 sequence (P08195 1-529 partner): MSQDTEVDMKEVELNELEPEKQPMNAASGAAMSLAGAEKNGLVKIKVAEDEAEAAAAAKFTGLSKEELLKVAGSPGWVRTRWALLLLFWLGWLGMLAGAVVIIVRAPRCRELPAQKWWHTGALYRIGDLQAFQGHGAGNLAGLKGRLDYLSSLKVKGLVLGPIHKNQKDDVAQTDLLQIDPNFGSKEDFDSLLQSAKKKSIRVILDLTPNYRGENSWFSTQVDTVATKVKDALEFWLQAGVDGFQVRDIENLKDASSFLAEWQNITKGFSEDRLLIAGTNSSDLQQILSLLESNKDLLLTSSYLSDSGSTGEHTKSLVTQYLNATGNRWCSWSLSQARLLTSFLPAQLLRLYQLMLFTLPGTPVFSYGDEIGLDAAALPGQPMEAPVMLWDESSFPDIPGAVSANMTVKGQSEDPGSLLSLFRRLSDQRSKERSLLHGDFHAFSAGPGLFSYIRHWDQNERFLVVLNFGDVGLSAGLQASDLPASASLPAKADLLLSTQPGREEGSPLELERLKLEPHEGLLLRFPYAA
The experiment in a line: Cystine-induced glutamate release assay. Also noted: endogenous in cells; host or cells: H4 cells. Conditions: H4 cells, sodium-free HEPES buffer, 50 μM L-Cystine, 2 hours, Amplex Red glutamate readout; read-out: pIC50 Cystine-induced glutamate release assay (converted). In kind it is cell-based. In short, it runs like this:
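IC50 (reported as pIC50) normalized to DMSO 1% and Erastin 50 μM controls, from Amplex Red fluorescence of glutamate exported into supernatant. H4 cells were washed into sodium-free buffer to exclude EAAT transport, then given compound with 50 μM L-cystine for 2 h in the incubator.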

For test [2], the target named is T1, system Xc^−. Kind of test: [^14C]L-Cystine uptake assay. In kind it is cell-based. Also noted: endogenous in cells; host or cells: H4 cells. The note with it: H4 cells, sodium-free HEPES buffer, 0.5 μM L-[14C]Cystine and 4.5 μM L-Cystine, 1 hour at 37° C.; read-out: pIC50 [^14C] L-Cystine uptake assay (converted). In short, it runs like this: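 Compound effect is given as pIC50, taken between controls of 1% DMSO and 50 μM Erastin. Human H4 cells were pretreated 15 min with compound in sodium-free buffer, then took up 0.5 μM [14C]cystine with 4.5 μM cold cystine for 1 hour at 37° C, read by scintillation proximity counting.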

For `CC1C(=O)N(CC(=O)Nc2ccc(C(F)(F)F)cc2)c2ccnc(F)c2-c2cccnc21` (single isomer, unassigned) [#187, enantiomer (10R) or (10S) of 2-[3-fluoro-10-methyl-9-oxo-4,8,12-triazatricyclo[9.4.0.0^2,7]pentadeca-1(11),2(7),3,5,12,14-hexaen-8-yl]-N-[4-(trifluoromethyl)phenyl]acetamide], the figures for the IC50 in test [1] and in test [2] were 39.8 to 100 nM and 15.8 to 39.8 nM, respectively.

For the compound `Cc1cc2c(c(C)n1)-c1ccccc1CC(=O)N2CC(=O)Nc1ccc(C(F)(F)F)cc1` [#27, 2-(1,3-dimethyl-6-oxo-7H-pyrido[4,3-d][3]benzazepin-5-yl)-N-[4-(trifluoromethyl)phenyl]acetamide], the IC50 was 15.8 to 39.8 nM in test [1] and < 15.8 nM in test [2].

For `COc1cc2c(c(OC)n1)-c1cccnc1C(C)C(=O)N2CC(=O)Nc1ccc(C(F)(F)F)cn1` (single isomer, unassigned) [#336, 2-[3,5-dimethoxy-10-methyl-9-oxo-4,8,12-triazatricyclo[9.4.0.0^2,7]pentadeca-1(15),2(7),3,5,11,13-hexaen-8-yl]-N-[5-(trifluoromethyl)-2-pyridyl]acetamide], the values for the IC50 in test [1] and in test [2] were 15.8 to 39.8 nM and 39.8 to 100 nM, respectively.

As for `CC1C(=O)N(CC(=O)Nc2ccc(Cl)c(F)c2)c2cc(C#N)ccc2-c2cc(F)cnc21` (single isomer, unassigned) [#307, N-(4-chloro-3-fluoro-phenyl)-2-[9-cyano-2-fluoro-5-methyl-6-oxo-5H-pyrido[2,3-d][1]benzazepin-7-yl]acetamid], the IC50 in test [1] was < 15.8 nM; in test [2], 15.8 to 39.8 nM.

On to `Cc1cc2c(c(Cl)n1)-c1ccnn1CC(=O)N2CC(=O)Nc1ccc(C(F)(F)F)cc1` [#100, 2-(14-chloro-12-methyl-8-oxo-5,6,9,13-tetrazatricyclo[8.4.0.0^2,6]tetradeca-1(14),2,4,10,12-pentaen-9-yl)-N-[4-(trifluoromethyl)phenyl]acetamide], for which the IC50 in test [1] and in test [2] was 39.8 to 100 nM each time.

Regarding `Cc1cc2c(c(F)n1)-c1cc(F)cnc1CC(=O)N2CC(=O)Nc1ccc(C(F)(F)F)cc1` [#391, 2-(3,14-difluoro-5-methyl-9-oxo-4,8,12-triazatricyclo[9.4.0.0^2,7]pentadeca-1(15),2(7),3,5,11,13-hexaen-8-yl)-N-[4-(trifluoromethyl)phenyl]acetamide], the IC50 in test [1] was 100 to 501 nM; in test [2], 15.8 to 39.8 nM.

For `Cc1cc2c(n(C)c1=O)-c1ccc(F)cc1C(C)C(=O)N2CC(=O)Nc1ccc(Cl)c(F)c1` (stereo not shown) [#354, N-(4-chloro-3-fluoro-phenyl)-2-(9-fluoro-1,3,7-trimethyl-2,6-dioxo-7H-pyrido[3,2-d][3]benzazepin-5-yl)acetamide], the IC50 in test [1] was 15.8 to 39.8 nM; in test [2], < 15.8 nM.

On to `Cc1cc2c(c(F)n1)-c1cccnc1C(F)C(=O)N2CC(=O)Nc1ccc(C(F)(F)F)cc1` (stereo not shown) [#101, 2-(3,10-difluoro-5-methyl-9-oxo-4,8,12-triazatricyclo[9.4.0.0^2,7]pentadeca-1(11),2(7),3,5,12,14-hexaen-8-yl)-N-[4-(trifluoromethyl)phenyl]acetamide], for which the IC50 in test [1] was 15.8 to 39.8 nM; in test [2] it was < 15.8 nM.

`CC1C(=O)N(CC(=O)Nc2ccc(C(F)F)cc2)c2cc(C3CC3C(F)(F)F)cc(F)c2-c2cccnc21` (stereo not shown) [#346, N-[4-(difluoromethyl)phenyl]-2-[11-fluoro-5-methyl-6-oxo-9-[2-(trifluoromethyl)cyclopropyl]-5H-pyrido[2,3-d][1]benzazepin-7-yl]acetamide]: the IC50 in test [1] and in test [2] was 39.8 to 100 nM in each case.

For `Cc1cc2c(cn1)-c1ccc(C)nc1CC(=O)N2CC(=O)Nc1ccc(C(F)(F)F)cc1` [#71, 2-(5,13-dimethyl-9-oxo-4,8,12-triazatricyclo[9.4.0.0^2,7]pentadeca-1(11),2(7),3,5,12,14-hexaen-8-yl)-N-[4-(trifluoromethyl)phenyl]acetamide], the IC50 in test [1] and in test [2] was 100 to 501 nM in each case.

For `COc1ccc2c(c1)C(C)C(=O)N(CC(=O)Nc1ccc(C(F)(F)F)cc1)c1cc(C)nc(Cl)c1-2` (stereo not shown) [#393, 2-(1-chloro-9-methoxy-3,7-dimethyl-6-oxo-7H-pyrido[3,4-a][3]benzazepin-5-yl)-N-[4-(trifluoromethyl)phenyl]acetamide], the values for the IC50 in test [1] and in test [2] were 39.8 to 100 nM and 15.8 to 39.8 nM, respectively.

As for `Cc1cc2c(c(F)n1)-c1cccnc1[C@@H](C)C(=O)N2CC(=O)Nc1ccc(Br)c(F)c1` [#158, N-(4-bromo-3-fluoro-phenyl)-2-[(10R)-3-fluoro-5,10-dimethyl-9-oxo-4,8,12-triazatricyclo[9.4.0.0^2,7]pentadeca-1(11),2(7),3,5,12,14-hexaen-8-yl]acetamide], the results for the IC50 in test [1] and in test [2] were 15.8 to 39.8 nM and < 15.8 nM, respectively.

Regarding `CC1C(=O)N(CC(=O)Nc2ccc(Cl)c(F)c2)c2cc(CN3CC(C)(O)C3)ccc2-c2cccnc21` (stereo not shown) [#343, N-(4-chloro-3-fluoro-phenyl)-2-[9-[(3-hydroxy-3-methyl-azetidin-1-yl)methyl]-5-methyl-6-oxo-5H-pyrido[2,3d][1]benzazepin-7-yl]acetamide], the IC50 in test [1] was 39.8 to 100 nM; in test [2], 100 to 501 nM.

As to `CC1C(=O)N(CC(=O)Nc2ccc(C(F)F)cc2)c2cc(C(F)F)c(=O)n(C)c2-c2ccccc21` (single isomer, unassigned) [#357, 2-[3-(difluoromethyl)-1,7-dimethyl-2,6-dioxo-7H-pyrido[3,2-d][3]benzazepin-5-yl]-N-[4-(difluoromethyl)phenyl]acetamide], the IC50 in test [1] and in test [2] was 15.8 to 39.8 nM throughout.

As for `Cc1cc2c(cn1)-c1ncccc1CC(=O)N2CC(=O)Nc1ccc(C(F)(F)F)cc1` [#12, 2-(13-methyl-9-oxo-3,10,14-triazatricyclo[9.4.0.0^2,7]pentadeca-1(11),2(7),3,5,12,14-hexaen-10-yl)-N-[4-(trifluoromethyl)phenyl]acetamide], the IC50 in test [1] and in test [2] was 100 to 501 nM each time.

In the case of `Cc1cc2c(c(F)n1)-c1ccc(C)nc1[C@@H](C)C(=O)N2CC(=O)Nc1ccc(C(F)(F)F)cc1` (single isomer, unassigned) [#204, Enantiomer (10R) or (10S) of 2-[3-fluoro-5,10,13-trimethyl-9-oxo-4,8,12-triazatricyclo[9.4.0.0^2,7]pentadeca-1(11),2(7),3,5,12,14-hexaen-8-yl]-N-[4-(trifluoromethyl)phenyl]acetamide], the results for the IC50 in test [1] and in test [2] were 39.8 to 100 nM and < 15.8 nM, respectively.

As for `Cc1cc2c(cc1C)N(CC(=O)Nc1ccc(Cl)c(F)c1)C(=O)Cc1cccnc1-2` [#1, N-(4-chloro-3-fluoro-phenyl)-2-(9,10-dimethyl-6-oxo-5-H-pyrido[3,2-d][1]benzazepin-7-yl)acetamide], the results for the IC50 in test [1] and in test [2] were 100 to 501 nM and 39.8 to 100 nM, respectively.

In the case of `Cc1cc2c(c(F)n1)-c1ncc(F)cc1C(C)C(=O)N2CC(=O)Nc1ccc(Cl)c(F)c1` (single isomer, unassigned) [#303, N-(4-chloro-3-fluoro-phenyl)-2-[5,15-difluoro-8,13-dimethyl-9-oxo-3,10,14-triazatricyclo[9.4.0.0^2,7]pentadeca-1(15),2,4,6,11,13-hexaen-10-yl]acetamide], the IC50 was < 15.8 nM in test [1] and 15.8 to 39.8 nM in test [2].

`Cc1cc2c(c(F)n1)-c1cccnc1[C@@H](C)C(=O)N2CC(=O)Nc1ccc(C(F)F)cc1` [#151]: the IC50 in test [1] and in test [2] was < 15.8 nM in each case.

As to `O=C(CN1C(=O)Cc2ncccc2-c2c1cc(F)nc2F)Nc1ccc(C(F)(F)F)cc1` [#43, 2-(3,5-difluoro-9-oxo-4,8,12-triazatricyclo [9.4.0.0^2,7]pentadeca-1(11),2,4,6,12,14-hexaen-8-yl)-N-[4-(trifluoromethyl)phen-yl]acetamide], the IC50 was 39.8 to 100 nM in test [1] and 100 to 501 nM in test [2].
